Source: patent US9061994B1, “Materials and methods useful to induce vacuolization, cell death, or a combination thereof” (The University of Toledo, priority 2011, dated 2015)
Entries after “also recorded” stand apart in the source; their conditions may differ. Where two headings read alike, the source gives them in different places.

Assays:
Assay type in all cases: cell-based, human
U251 glioblastoma cells [1] = test: Sulforhodamine B (SRB) growth inhibition assay; settings: for growth inhibitory (GI) activity, in words: 48 h SRB, Table 1, Table 2 (FIG. 64), FIG. 63; for GI50: Homo sapiens
Method: Cells experiencing methuosis initially undergo extreme cytoplasmic vacuolization which can be readily assessed by phase contrast microscopy. As viability is compromised (usually between 24-48 h), the cells detach from the culture surface and lose membrane integrity. […] Although methuosis can occur in a broad spectrum of human tumor cell lines, SAR studies were carried out with U251 glioblastoma cells. Therefore, this cell line was used in the present evaluation.
Total protein in adherent cells was measured by the sulforhodamine B (SRB) colorimetric assay, following standard procedures for anticancer drug screening used by the U.S. National Cancer Institute. […] On the day after plating, four wells were assayed to establish a pre-drug (time-0) baseline. Test compounds were diluted as described above and added to the remaining wells. The medium and compounds were replenished after 24 hr. SRB assays were performed at a 48 h endpoint as described, using a SpectraMax Plus 384 plate reader (Molecular Devices, Sunnyvale, Calif.) to determine absorbance at 515 nm.
Cells were seeded in 96-well plates as described in the methods. After 24 h, each compound was added at the indicated concentrations and SRB assays were performed after an additional 48 h. Each point represents the mean±SD of values from four wells. The dotted line on each graph indicates the average absorbance of four wells sampled at time-0 (i.e., the time that the compounds were added).
The human U251 glioblastoma cell line was obtained from the DCT Tumor Repository (National Cancer Institute, Fredrick, Md.). […] All test compounds were dissolved in DMSO and serially diluted in DMSO so that the desired final drug concentrations could be achieved by making a 1/1000 dilution into the culture medium. One day after plating, four wells were assayed to establish a pre-drug (time-0) baseline. At the same time, fresh medium containing test compounds was added to the remaining wells. Control wells received DMSO alone. SRB assays were performed at a 48 h endpoint. To minimize the impact of potential variations in stability among the compounds, medium with test compound was replenished after the first 24 h.

U251 glioblastoma cells [2] = test: Cell morphology / vacuolization by phase-contrast microscopy
U251 glioblastoma cells [3] = test: Trypan blue dye-exclusion viability assay; settings: for cell viability, in words: 10 μM, 2 days; for viability at 10 µM: Homo sapiens, U-251, 48 h, each compound at 10 μM for 2 days, mean ± SD of three cultures
Method: To directly compare the effects of different compounds on cell viability, the trypan blue dye-exclusion assay was utilized to distinguish live (unstained) from dead (blue) cells. U251 cells were seeded in 35 mm diameter dishes at a density of 100,000 cells/dish. Twenty-four hours later, test compounds were added in fresh medium at a final concentration of […] received an equivalent volume of vehicle (DMSO). […] At the end of the incubation, floating and adherent cells were combined and collected by centrifugation. Cells were washed with Hank's balanced salt solution (HBSS) and incubated with 0.2% trypan blue solution (Sigma, St. Louis, Mo.) for 5 min at room temperature. The percentage of dead cells was determined by light microscopy using a hemocytometer. Three separate cultures were assayed for each compound.
Cells were seeded in 35 mm dishes and treated for 48 h with compounds at a final concentration of […] blue dye-exclusion assays were performed as described in the methods. Values are the mean±SD of separate assays performed on three parallel cultures.

U251 glioblastoma cells [4] = test: SAR comparison of methuosis induction (vacuolization, MTT viability, colony formation) versus MIPP; settings: 10 μM, morphology 24 h and 48 h, MTT 48 h, colony formation (FIGS. 36, 48)
Description: Analogs based on the α,β-unsaturated ketone core were designed from Claisen-Schmidt condensations between indole-3-carboxaldehydes and aromatic ketones. Such aldol condensations are known to proceed well employing secondary amines as catalysts. Initially, the orientation of the pyridine nitrogen was investigated.

[5] = concentration not singled out ([…] and 10 μM or as in figure)

Cc1[nH]c2ccc(N)cc2c1/C=C/C(=O)c1ccncc1 [402g, trans-3-(5-amino-2-methylindol-3-yl)-1-(4-pyridinyl)-2-propen-1-one]
growth inhibitory (GI) activity, in words (U251 glioblastoma cells [1]; U251): no GI activity in the concentration range tested | cell morphology / vacuolization (U251 glioblastoma cells [2]; 10 μM): did cause vacuolization after 48 h

COc1ccc2[nH]cc(/C=C/C(=O)c3ccncc3)c2c1 [compound 13, trans-3-(5-methoxy-1H-indol-3-yl)-1-(4-pyridinyl)-2-propen-1-one]
cell viability, in words (U251 glioblastoma cells [3]): only minimally affected | viability at 10 µM (U251 glioblastoma cells [3]): 91.2 ± 0.7% | GI50 (U251 glioblastoma cells [1]; U-251, 48 h, read-out: GI50): 18.6 µM | cell morphology / vacuolization (U251 glioblastoma cells [2]; 10 μM): extensively vacuolated

trans-3-[5-((4-methylbenzoate)methoxy)-1H-Indol-3-yl)]-1-(4-pyridinyl)-2-propen-1-one [compound 26]
methuosis-inducing activity compared with compound 2 (MIPP) (U251 glioblastoma cells [4]): neither compound 26 nor compound 27 induced methuosis

CCc1[nH]c2ccc(OC)cc2c1/C=C/C(=O)c1ccncc1 [compound 107a, trans-3-(2-ethyl-5-methoxyindol-3-yl)-1-(4-pyridinyl)-2-propen-1-one]
cell viability, in words (U251 glioblastoma cells [3]): substantial loss of cell viability | viability at 10 µM (U251 glioblastoma cells [3]): 34.6 ± 1.1% | GI50 (U251 glioblastoma cells [1]; U-251, 48 h, read-out: GI50): 3.2 µM | GI50 (U251 glioblastoma cells [1]; U-251, U251, dose-response curves repeated six more times (Table 1 footnote g), read-out: GI50, means (±SD) for all seven determinations): 2.8 µM | growth inhibitory (GI) activity, in words (U251 glioblastoma cells [1]; U251): not statistically different from the MOMIPP | cell morphology / vacuolization (U251 glioblastoma cells [2]; 10 μM): morphological effects indistinguishable from those observed with the same concentration of MOMIPP

CCCc1[nH]c2ccc(OC)cc2c1/C=C/C(=O)c1ccncc1 [107b, trans-3-(5-methoxy-2-propylindol-3-yl)-1-(4-pyridinyl)-2-propen-1-one]
cell viability, in words (U251 glioblastoma cells [3]): only minimally affected | viability at 10 µM (U251 glioblastoma cells [3]): 83.9 ± 2.3% | GI50 (U251 glioblastoma cells [1]; U-251, 48 h, read-out: GI50): 15.3 µM | cell morphology / vacuolization (U251 glioblastoma cells [2]; 10 μM): extensively vacuolated

COc1ccc2[nH]cc(/C=C/C(=O)c3cccnc3)c2c1 [compound 16, trans-3-(5-methoxy-1H-indol-3-yl)-1-(3-pyridinyl)-2-propen-1-one]
methuosis-inducing activity compared with compound 2 (MIPP) (U251 glioblastoma cells [4]): Loss of activity

O=C(/C=C/c1c[nH]c2ccccc12)c1cccnc1 [compound 11, trans-3-(1H-indol-3-yl)-1-(3-pyridinyl)-2-propen-1-one]
methuosis-inducing activity compared with compound 2 (MIPP) (U251 glioblastoma cells [4]): relatively ineffective at inducing methuosis compared with MIPP

CCCCOc1ccc2[nH]c(C)c(/C=C/C(=O)c3ccncc3)c2c1 [402d, trans-3-(5-butoxy-2-methylindole-3-yl)-1-(4-pyridinyl)-2-propen-1-one]
growth inhibitory (GI) activity, in words (U251 glioblastoma cells [1]; U251): markedly reduced; also recorded: complete lack of GI activity | cell morphology / vacuolization (U251 glioblastoma cells [2]; [5]): produced much fewer and smaller vacuoles and had little effect on cell density

trans-3-[5-((4-carboxyphenyl)-methoxy)-1H-Indol-3-yl)]-1-(4-pyridinyl)-2-propen-1-one [compound 27]
methuosis-inducing activity compared with compound 2 (MIPP) (U251 glioblastoma cells [4]): neither compound 26 nor compound 27 induced methuosis

COc1ccc2[nH]c(CC(C)C)c(/C=C/C(=O)c3ccncc3)c2c1 [107d, trans-3-(2-isobutyl-5-methoxyindol-3-yl)-1-(4-pyridinyl)-2-propen-1-one]
cell viability, in words (U251 glioblastoma cells [3]): only minimally affected | viability at 10 µM (U251 glioblastoma cells [3]): 87.4 ± 1.5% | GI50 (U251 glioblastoma cells [1]; U-251, 48 h, read-out: GI50): 16.6 µM | cell morphology / vacuolization (U251 glioblastoma cells [2]; 10 μM): extensively vacuolated

COc1ccc2[nH]c(C)c(/C=C/C(=O)c3cccnc3)c2c1 [meta-MOMIPP, trans-3-(5-methoxy-2-methylindol-3-yl)-1-(3-pyridinyl)-2-propen-1-one]
viability at 10 µM (U251 glioblastoma cells [3]): 96.2 ± 1.3% | GI50 (U251 glioblastoma cells [1]; U-251, 48 h, read-out: GI50): 16.9 µM | cell morphology / vacuolization (U251 glioblastoma cells [2]; 10 μM): did not accumulate vacuoles

O=C(/C=C/c1c[nH]c2ccccc12)c1ccccc1 [compound 9, trans-3-(1H-indol-3-yl)-1-phenyl-2-propen-1-one]
methuosis-inducing activity compared with compound 2 (MIPP) (U251 glioblastoma cells [4]): relatively ineffective at inducing methuosis compared with MIPP

O=C(/C=C/c1c[nH]c2ccc(O)cc12)c1ccncc1 [compound 21, trans-3-(5-hydroxy-1H-indol-3-yl)-1-(4-pyridinyl)-2-propen-1-one]
methuosis-inducing activity compared with compound 2 (MIPP) (U251 glioblastoma cells [4]): marked reduction in activity compared to the 5-methoxy compound 19

COc1ccc2[nH]cc(/C=C/C(=O)c3cnccn3)c2c1 [compound 17, trans-3-(5-methoxy-1H-indol-3-yl)-1-(pyrazine)-2-propen-1-one]
methuosis-inducing activity compared with compound 2 (MIPP) (U251 glioblastoma cells [4]): Loss of activity

O=C(/C=C/c1c[nH]c2ccccc12)c1ccccn1 [compound 10, trans-3-(1H-indol-3-yl)-1-(2-pyridinyl)-2-propen-1-one]
methuosis-inducing activity compared with compound 2 (MIPP) (U251 glioblastoma cells [4]): relatively ineffective at inducing methuosis compared with MIPP

COc1ccc2[nH]c(C(C)C)c(/C=C/C(=O)c3ccncc3)c2c1 [107c, trans-3-(2-isopropyl-5-methoxyindol-3-yl)-1-(4-pyridinyl)-2-propen-1-one]
cell viability, in words (U251 glioblastoma cells [3]): only minimally affected | viability at 10 µM (U251 glioblastoma cells [3]): 78.8 ± 1.1% | GI50 (U251 glioblastoma cells [1]; U-251, 48 h, read-out: GI50): > 20 µM | cell morphology / vacuolization (U251 glioblastoma cells [2]; 10 μM): extensively vacuolated

COc1ccc2c(c1)c(/C=C/C(=O)c1ccncc1)cn2C [compound 20, trans-3-(5-methoxy-1-methyl-Indol-3-yl)-1-(4-pyridinyl)-2-propen-1-one]
methuosis-inducing activity compared with compound 2 (MIPP) (U251 glioblastoma cells [4]): induced some cytoplasmic vacuolization but had modest effects on cell viability

NCc1ccc2[nH]cc(/C=C/C(=O)c3ccncc3)c2c1 [402i, trans-3-(5-aminomethylindol-3-yl)-1-(4-pyridinyl)-2-propen-1-one]
growth inhibitory (GI) activity, in words (U251 glioblastoma cells [1]; U251): completely inactive in both growth inhibition and vacuolization assays | cell morphology / vacuolization (U251 glioblastoma cells [2]; [5]): completely inactive in both growth inhibition and vacuolization assays

O=C(/C=C/c1c[nH]c2ccc(O)cc12)c1ccncc1 [compound 15, trans-3-(5-hydroxy-1H-indol-3-yl)-1-(4-pyridinyl)-2-propen-1-one]
methuosis-inducing activity compared with compound 2 (MIPP) (U251 glioblastoma cells [4]): greatly reduced activity of the compound in all of the assays
